In patent US20040234580A1, “Animal feeds including actives and methods of using the same” (priority 2001, published 2004):

Key:
[1] = Storage stability of ivermectin in extruded dog food (HPLC content, frozen versus ambient); assay type: physicochemical
Description: Following this treatment, the product was dried to a moisture level of less than 10% by weight. Three samples from the dryer were subsequently frozen and another […] placed in a plastic bag and stored at room temperature, for a period in excess of six months.
The products resulting from this test were analyzed to determine the content of ivermectin in the samples. In this analysis, each feed sample was ground in a Retsch mill at low speed using a 2 mm grating screen, so that the ground material would pass through a #10 mesh screen. A total of six samples, three frozen and three stored at room temperature, were processed. In each case, three 37.5 g of a sample was placed in a 250 ml bottle and 100 ml of methanol was added. The bottle was capped, the sample was sonicated for 20 minutes and shaken for 1 hour. 40 ml of the extract was added to a centrifuge tube and centrifuged for 5 minutes at 2000 rpm. 20 ml of the supernatant solution was then passed through a alumina column. The first five ml was rejected and the remainder of the liquid through the column was collected as a purified sample. 2 ml of the purified sample was mixed with a 5 ml mixture of acetonitrile:water (1:1), and a solid phase extraction (SPE) was performed in accordance with the procedure described in Doherty et al., Analytical Chemists International, 81:869(4) (1998). […]

[2] = Ivermectin content of dog blood after ad libitum feeding of ivermectin-containing dog food (HPLC); assay type: in vivo; conditions: female mixed breed dog about 10 kg; Example 2 feed (approx. 1121.1 μg ivermectin/kg db) ad libitum; blood drawn four hours after eating, day 7 and seven days later
Description: The dog food from this run was fed ad libitum to an intact female mixed breed dog weighing about 10 kg. On day 7, blood was drawn from the dog four hours after eating and stored in an anti-coagulant tube with calcium EDTA in a refrigerator. Seven days later, the same dog was again fed the ivermectin-containing feed ad libitum and blood was collected four hours post-feeding. This sample was also refrigerated in the same fashion as the first sample.
The blood samples were then analyzed to determine the content of ivermectin therein, using HPLC. The procedure used was described in Diclidnson, Journal of Chromatography, 58:250-257 (1990). In this procedure, 0.5 ml of each blood sample was purified using solid phase extraction (SPE) cartridges and dissolved in a small volume of mobile phase for injection onto the HPLC column. The method has a limit of detection of about 2 ng/ml and uses an internal standard. After preparation of the internal standard, a standard curve is constructed using ivermectin-spiked blood samples. A known 1% ivermectin sample was used as the primary standard.
The blood samples from the dog were then analyzed for ivermectin content with HPLC peak heights corrected using the internal standard.

For Ivermectin, the “average ivermectin content of the three frozen and the ambient-stored samples” value ([1]; co-extruded pillow dog food of Example 1, stored frozen or at room temperature in excess of six months, expected content 0.42 μg/kg, HPLC) was 0.43 µg/kg, the “effect of storage conditions (frozen versus ambient) upon ivermectin potency” value ([1]; dog food of Example 1, frozen versus room temperature in excess of six months) was “little effect” and the “ivermectin in dog blood samples” value [2] was 5 to 8 ng/mL.
